From PubChem BioAssay (NCI)
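Five concentrations, 48 hours, 96-well plates. At the TGI there is no net growth.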

How the values were obtained:
Assay in all cases: NCI-60 cell line screen, 48 h
786-0 renal = tested on: 786-0 renal
A498 renal = tested on: A498 renal
A549 NSCLC = tested on: A549 NSCLC
ACHN renal = tested on: ACHN renal
BT-549 breast = tested on: BT-549 breast
CAKI-1 renal = tested on: CAKI-1 renal
CCRF-CEM leukemia = tested on: CCRF-CEM leukemia
COLO 205 colon = tested on: COLO 205 colon
DU-145 prostate = tested on: DU-145 prostate
EKVX NSCLC = tested on: EKVX NSCLC
HCT-116 colon = tested on: HCT-116 colon
HCT-15 colon = tested on: HCT-15 colon
HL-60(TB) leukemia = tested on: HL-60(TB) leukemia
HOP-62 NSCLC = tested on: HOP-62 NSCLC
HOP-92 NSCLC = tested on: HOP-92 NSCLC
HS 578T breast = tested on: HS 578T breast
HT29 colon = tested on: HT29 colon
IGROV1 ovarian = tested on: IGROV1 ovarian
K-562 leukemia = tested on: K-562 leukemia
KM12 colon = tested on: KM12 colon
LOX IMVI melanoma = tested on: LOX IMVI melanoma
M14 melanoma = tested on: M14 melanoma
MALME-3M melanoma = tested on: MALME-3M melanoma
MCF7 breast = tested on: MCF7 breast
MDA-MB-231 breast = tested on: MDA-MB-231 breast
MDA-MB-435 = tested on: MDA-MB-435
MDA-N = tested on: MDA-N
MOLT-4 leukemia = tested on: MOLT-4 leukemia
NCI-H226 lung = tested on: NCI-H226 lung
NCI-H23 lung = tested on: NCI-H23 lung
NCI-H460 lung = tested on: NCI-H460 lung
NCI-H522 lung = tested on: NCI-H522 lung
NCI/ADR-RES ovarian = tested on: NCI/ADR-RES ovarian
OVCAR-3 ovarian = tested on: OVCAR-3 ovarian
OVCAR-4 ovarian = tested on: OVCAR-4 ovarian
OVCAR-5 ovarian = tested on: OVCAR-5 ovarian
OVCAR-8 ovarian = tested on: OVCAR-8 ovarian
PC-3 prostate = tested on: PC-3 prostate
RPMI-8226 leukemia = tested on: RPMI-8226 leukemia
RXF 393 renal = tested on: RXF 393 renal
SF-268 CNS = tested on: SF-268 CNS
SF-295 CNS = tested on: SF-295 CNS
SF-539 CNS = tested on: SF-539 CNS
SK-MEL-2 melanoma = tested on: SK-MEL-2 melanoma
SK-MEL-28 melanoma = tested on: SK-MEL-28 melanoma
SK-MEL-5 melanoma = tested on: SK-MEL-5 melanoma
SK-OV-3 ovarian = tested on: SK-OV-3 ovarian
SN12C renal = tested on: SN12C renal
SNB-19 CNS = tested on: SNB-19 CNS
SNB-75 CNS = tested on: SNB-75 CNS
SW-620 colon = tested on: SW-620 colon
T-47D breast = tested on: T-47D breast
TK-10 renal = tested on: TK-10 renal
U251 CNS = tested on: U251 CNS
UACC-257 melanoma = tested on: UACC-257 melanoma
UACC-62 melanoma = tested on: UACC-62 melanoma
SR leukemia = tested on: SR leukemia
UO-31 renal = tested on: UO-31 renal

## COC(=O)c1ccccc1Nc1ccccc1C(=O)OC
786-0 renal
  TGI: > 100 µM
A498 renal
  TGI: > 100 µM
A549 NSCLC
  TGI: > 100 µM
ACHN renal
  TGI: > 100 µM
BT-549 breast
  TGI: > 100 µM
CAKI-1 renal
  TGI: > 100 µM
CCRF-CEM leukemia
  TGI: > 100 µM
COLO 205 colon
  TGI: > 100 µM
DU-145 prostate
  TGI: > 100 µM
EKVX NSCLC
  TGI: > 100 µM
HCT-116 colon
  TGI: > 100 µM
HCT-15 colon
  TGI: > 100 µM
HL-60(TB) leukemia
  TGI: > 100 µM
HOP-62 NSCLC
  TGI: > 100 µM
HOP-92 NSCLC
  TGI: 75.5 µM
HS 578T breast
  TGI: 72.2 µM
HT29 colon
  TGI: > 100 µM
IGROV1 ovarian
  TGI: > 100 µM
K-562 leukemia
  TGI: > 100 µM
KM12 colon
  TGI: > 100 µM
LOX IMVI melanoma
  TGI: > 100 µM
M14 melanoma
  TGI: > 100 µM
MALME-3M melanoma
  TGI: 96.8 µM
MCF7 breast
  TGI: > 100 µM
MDA-MB-231 breast
  TGI: > 100 µM
MDA-MB-435
  TGI: > 100 µM
MDA-N
  TGI: > 100 µM
MOLT-4 leukemia
  TGI: > 100 µM
NCI-H226 lung
  TGI: 71.6 µM
NCI-H23 lung
  TGI: > 100 µM
NCI-H460 lung
  TGI: > 100 µM
NCI-H522 lung
  TGI: > 100 µM
NCI/ADR-RES ovarian
  TGI: > 100 µM
OVCAR-3 ovarian
  TGI: > 100 µM
OVCAR-4 ovarian
  TGI: > 100 µM
OVCAR-5 ovarian
  TGI: > 100 µM
OVCAR-8 ovarian
  TGI: > 100 µM
PC-3 prostate
  TGI: > 100 µM
RPMI-8226 leukemia
  TGI: > 100 µM
RXF 393 renal
  TGI: > 100 µM
SF-268 CNS
  TGI: > 100 µM
SF-295 CNS
  TGI: > 100 µM
SF-539 CNS
  TGI: > 100 µM
SK-MEL-2 melanoma
  TGI: > 100 µM
SK-MEL-28 melanoma
  TGI: > 100 µM
SK-MEL-5 melanoma
  TGI: > 100 µM
SK-OV-3 ovarian
  TGI: > 100 µM
SN12C renal
  TGI: > 100 µM
SNB-19 CNS
  TGI: > 100 µM
SNB-75 CNS
  TGI: > 100 µM
SW-620 colon
  TGI: > 100 µM
T-47D breast
  TGI: > 100 µM
TK-10 renal
  TGI: > 100 µM
U251 CNS
  TGI: > 100 µM
UACC-257 melanoma
  TGI: > 100 µM
UACC-62 melanoma
  TGI: > 100 µM

## O[C@H]1[C@@H]2OC[C@@H](O)[C@H](OCc3ccccc3)[C@@](COCc3ccccc3)(O2)[C@@H]1OCc1ccccc1
786-0 renal
  TGI: 45.4 µM
A498 renal
  TGI: 31.4 µM
A549 NSCLC
  TGI: 33.3 µM
ACHN renal
  TGI: 30.4 µM
BT-549 breast
  TGI: 32.2 µM
CAKI-1 renal
  TGI: 0.0898 µM
CCRF-CEM leukemia
  TGI: 42.1 µM
COLO 205 colon
  TGI: 32.8 µM
DU-145 prostate
  TGI: 35.5 µM
EKVX NSCLC
  TGI: 30.3 µM
HCT-116 colon
  TGI: 47.5 µM
HCT-15 colon
  TGI: 30.9 µM
HL-60(TB) leukemia
  TGI: 68.6 µM
HOP-62 NSCLC
  TGI: 34.4 µM
HOP-92 NSCLC
  TGI: 26.3 µM
HS 578T breast
  TGI: 40.7 µM
HT29 colon
  TGI: 28.7 µM
IGROV1 ovarian
  TGI: 27.5 µM
K-562 leukemia
  TGI: 67 µM
KM12 colon
  TGI: 35.6 µM
LOX IMVI melanoma
  TGI: 32.7 µM
M14 melanoma
  TGI: 36.3 µM
MALME-3M melanoma
  TGI: 28.6 µM
MCF7 breast
  TGI: 39.6 µM
MDA-MB-231 breast
  TGI: 30.9 µM
MDA-MB-435
  TGI: 32.1 µM
MDA-N
  TGI: 29.4 µM
MOLT-4 leukemia
  TGI: > 100 µM
NCI-H23 lung
  TGI: 32.3 µM
NCI-H460 lung
  TGI: 53.8 µM
NCI-H522 lung
  TGI: 27.7 µM
NCI/ADR-RES ovarian
  TGI: 32 µM
OVCAR-3 ovarian
  TGI: 19.4 µM
OVCAR-4 ovarian
  TGI: 24.4 µM
OVCAR-5 ovarian
  TGI: 30 µM
OVCAR-8 ovarian
  TGI: 31 µM
PC-3 prostate
  TGI: 28.3 µM
RPMI-8226 leukemia
  TGI: 31.9 µM
RXF 393 renal
  TGI: 39.8 µM
SF-268 CNS
  TGI: 42.8 µM
SF-295 CNS
  TGI: 26.1 µM
SF-539 CNS
  TGI: 31 µM
SK-MEL-2 melanoma
  TGI: 29.7 µM
SK-MEL-28 melanoma
  TGI: 27.3 µM
SK-OV-3 ovarian
  TGI: 36.6 µM
SN12C renal
  TGI: 27.9 µM
SNB-19 CNS
  TGI: 30 µM
SNB-75 CNS
  TGI: 18.7 µM
SR leukemia
  TGI: > 100 µM
SW-620 colon
  TGI: 33.1 µM
TK-10 renal
  TGI: 32.5 µM
U251 CNS
  TGI: 30.4 µM
UACC-257 melanoma
  TGI: 28.7 µM
UACC-62 melanoma
  TGI: 23.5 µM
UO-31 renal
  TGI: 30.6 µM
